Experimental data reported in publication PMC7836466, “Putative ligand binding sites of two functionally characterized bark beetle odorant receptors” (BMC Biology, 2021).
Values belong to the molecule of their own block, whether it stands above or below them.

Columns and labels:
ItypOR46 [1] = tested on: T1, ItypOR46; test: calcium fluorescence assay in TREx/HEK293 cells; also Xenopus oocyte two-electrode voltage clamp; site-directed mutagenesis; type: cell-based, Ips typographus
T1 construct: gene OR46; full-length, N-terminal V5 tag; with ItypOrco

ItypOrco = target: T2, ItypOrco (Ips typographus, UniProt A0A7L8XYY7); test: calcium fluorescence dose-response in TREx/HEK293 cells expressing only ItypOrco; type: cell-based
T2 construct: full-length, N-terminal c-Myc tag
T2 sequence (A0A7L8XYY7 1-480): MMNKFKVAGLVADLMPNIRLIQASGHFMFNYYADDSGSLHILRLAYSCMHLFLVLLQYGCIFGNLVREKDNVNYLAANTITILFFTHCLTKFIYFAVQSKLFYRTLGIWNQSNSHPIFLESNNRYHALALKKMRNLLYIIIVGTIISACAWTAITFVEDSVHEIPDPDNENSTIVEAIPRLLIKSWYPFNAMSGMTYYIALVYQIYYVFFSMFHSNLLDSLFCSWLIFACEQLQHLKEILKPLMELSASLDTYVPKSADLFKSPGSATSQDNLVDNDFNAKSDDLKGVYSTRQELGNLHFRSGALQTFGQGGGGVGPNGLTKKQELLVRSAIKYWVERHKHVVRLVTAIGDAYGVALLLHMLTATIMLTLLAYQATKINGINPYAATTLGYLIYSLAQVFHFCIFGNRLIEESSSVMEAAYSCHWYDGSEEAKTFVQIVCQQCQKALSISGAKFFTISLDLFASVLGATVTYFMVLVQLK

ItypOR49 = target: T3, ItypOR49 (Ips typographus, UniProt A0A7L8XYT4); test: calcium fluorescence dose-response in TREx/HEK293 cells; type: cell-based
T3 construct: gene OR49; full-length, N-terminal V5 tag; with ItypOrco
T3 sequence (A0A7L8XYT4 1-406): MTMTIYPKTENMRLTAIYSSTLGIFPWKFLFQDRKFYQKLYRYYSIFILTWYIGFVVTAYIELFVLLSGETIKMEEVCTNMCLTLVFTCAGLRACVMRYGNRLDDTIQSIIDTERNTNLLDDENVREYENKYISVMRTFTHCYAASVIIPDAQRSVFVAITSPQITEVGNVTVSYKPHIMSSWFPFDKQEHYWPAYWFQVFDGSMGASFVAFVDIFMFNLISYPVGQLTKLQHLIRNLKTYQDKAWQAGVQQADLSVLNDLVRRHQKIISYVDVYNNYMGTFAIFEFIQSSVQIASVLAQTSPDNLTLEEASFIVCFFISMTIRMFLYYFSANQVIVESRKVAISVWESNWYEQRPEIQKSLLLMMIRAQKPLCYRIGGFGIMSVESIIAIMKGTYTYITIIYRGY
T3 sequence (A0A7L8XYY7 1-480 partner): T2 sequence (A0A7L8XYY7 1-480)

ItypOR46 [2] = target: T4, ItypOR46 (Ips typographus, UniProt A0A7L8XZ66); test: two-electrode voltage clamp dose-response in Xenopus oocytes (secondary response; not significant in HEK cells); type: cell-based
T4 construct: with ItypOrco
T4 sequence (A0A7L8XZ66 1-408): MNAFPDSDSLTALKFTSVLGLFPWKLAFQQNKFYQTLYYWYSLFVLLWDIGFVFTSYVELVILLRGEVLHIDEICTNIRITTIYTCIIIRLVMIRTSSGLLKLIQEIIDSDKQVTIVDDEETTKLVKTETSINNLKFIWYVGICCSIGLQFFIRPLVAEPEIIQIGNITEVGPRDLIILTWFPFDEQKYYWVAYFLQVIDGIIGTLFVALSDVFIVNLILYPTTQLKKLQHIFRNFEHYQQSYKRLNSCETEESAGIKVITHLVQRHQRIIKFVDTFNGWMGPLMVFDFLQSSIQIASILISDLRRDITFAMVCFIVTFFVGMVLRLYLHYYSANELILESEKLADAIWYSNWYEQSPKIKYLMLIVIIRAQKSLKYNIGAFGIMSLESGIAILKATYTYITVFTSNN

Compound: C=CC(=C)C[C@@H](O)CC(C)C [(S)-(−)-ipsenol]
EC50 (ItypOR46 [1]): 1.98 µM

EC50 (ItypOrco): 24.5 µM
Compound: CCc1ccc(NC(=O)CSc2nnc(-c3cccnc3)n2CC)cc1 [VUAA1]

Compound: C=CC(=C)C[C@@H](O)C=C(C)C [(R)-(−)-ipsdienol]
EC50 (ItypOR49): 9.47 µM | two-electrode voltage clamp dose-response in Xenopus oocytes (secondary response) (ItypOR46 [2]): secondary response of ItypOR46 to racemic ipsdienol is mainly triggered by the (R)-(−)-enantiomer
